Measured values from ChEMBL document CHEMBL5291721, “A preclinical secondary pharmacology resource illuminates target-adverse drug reaction associations of marketed drugs” (Nat Commun, 2023).

How the values were obtained:
Estrogen receptor = biological target: T1, Estrogen receptor (Homo sapiens, UniProt P03372)
T1 sequence (P03372 whole entry): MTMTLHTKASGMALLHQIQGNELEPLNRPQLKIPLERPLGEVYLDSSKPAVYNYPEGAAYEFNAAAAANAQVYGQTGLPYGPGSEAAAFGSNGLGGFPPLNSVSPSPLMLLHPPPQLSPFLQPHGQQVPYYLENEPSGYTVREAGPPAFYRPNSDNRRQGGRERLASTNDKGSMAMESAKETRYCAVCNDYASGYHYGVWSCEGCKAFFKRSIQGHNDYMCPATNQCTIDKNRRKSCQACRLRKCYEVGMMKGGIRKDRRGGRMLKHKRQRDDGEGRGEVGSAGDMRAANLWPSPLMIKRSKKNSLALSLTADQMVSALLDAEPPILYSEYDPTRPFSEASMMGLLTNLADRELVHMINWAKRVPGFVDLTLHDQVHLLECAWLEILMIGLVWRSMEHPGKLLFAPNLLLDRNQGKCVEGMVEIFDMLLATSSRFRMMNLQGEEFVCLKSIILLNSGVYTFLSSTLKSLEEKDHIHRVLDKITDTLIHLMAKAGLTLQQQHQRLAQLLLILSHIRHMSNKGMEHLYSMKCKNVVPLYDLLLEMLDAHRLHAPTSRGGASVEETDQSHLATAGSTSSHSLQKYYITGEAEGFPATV

[1] = biological target: Prostaglandin G/H synthase 1 (Homo sapiens, UniProt P23219); format: functional
Sequence of Prostaglandin G/H synthase 1 (P23219 whole entry): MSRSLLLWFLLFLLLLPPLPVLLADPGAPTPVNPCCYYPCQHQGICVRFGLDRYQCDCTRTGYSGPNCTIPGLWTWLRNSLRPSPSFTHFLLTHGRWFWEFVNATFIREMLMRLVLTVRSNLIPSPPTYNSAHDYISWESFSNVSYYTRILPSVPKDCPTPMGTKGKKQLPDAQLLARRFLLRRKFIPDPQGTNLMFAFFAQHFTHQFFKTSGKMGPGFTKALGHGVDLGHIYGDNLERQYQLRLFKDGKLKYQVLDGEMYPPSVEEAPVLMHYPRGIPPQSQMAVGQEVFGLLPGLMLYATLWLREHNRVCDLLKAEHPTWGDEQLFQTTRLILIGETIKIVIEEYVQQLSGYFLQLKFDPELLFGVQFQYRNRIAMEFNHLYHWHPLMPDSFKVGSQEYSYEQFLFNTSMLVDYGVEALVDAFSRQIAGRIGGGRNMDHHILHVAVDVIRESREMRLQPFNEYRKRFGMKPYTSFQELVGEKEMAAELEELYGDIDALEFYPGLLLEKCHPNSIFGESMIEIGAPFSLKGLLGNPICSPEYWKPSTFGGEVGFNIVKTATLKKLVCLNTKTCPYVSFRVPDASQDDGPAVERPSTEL

[2] = biological target: 5-hydroxytryptamine receptor 2B (Homo sapiens, UniProt P41595); format: functional, cell-based
Sequence of 5-hydroxytryptamine receptor 2B (P41595 whole entry): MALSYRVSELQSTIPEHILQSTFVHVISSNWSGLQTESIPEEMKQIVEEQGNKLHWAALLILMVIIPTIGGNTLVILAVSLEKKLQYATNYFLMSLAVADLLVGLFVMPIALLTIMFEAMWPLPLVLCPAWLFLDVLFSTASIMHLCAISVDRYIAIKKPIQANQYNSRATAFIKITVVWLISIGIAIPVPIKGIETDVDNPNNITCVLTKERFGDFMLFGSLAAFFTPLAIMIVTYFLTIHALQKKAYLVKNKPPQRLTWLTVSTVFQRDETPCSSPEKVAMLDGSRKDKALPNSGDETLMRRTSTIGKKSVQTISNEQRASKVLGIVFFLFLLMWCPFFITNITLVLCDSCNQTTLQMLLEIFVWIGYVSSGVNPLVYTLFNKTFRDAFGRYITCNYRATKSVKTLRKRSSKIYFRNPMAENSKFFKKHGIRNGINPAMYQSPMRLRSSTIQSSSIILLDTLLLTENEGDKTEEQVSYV

Acetylcholinesterase = Acetylcholinesterase (Homo sapiens, UniProt P22303); format: functional
Sequence of Acetylcholinesterase (P22303 whole entry): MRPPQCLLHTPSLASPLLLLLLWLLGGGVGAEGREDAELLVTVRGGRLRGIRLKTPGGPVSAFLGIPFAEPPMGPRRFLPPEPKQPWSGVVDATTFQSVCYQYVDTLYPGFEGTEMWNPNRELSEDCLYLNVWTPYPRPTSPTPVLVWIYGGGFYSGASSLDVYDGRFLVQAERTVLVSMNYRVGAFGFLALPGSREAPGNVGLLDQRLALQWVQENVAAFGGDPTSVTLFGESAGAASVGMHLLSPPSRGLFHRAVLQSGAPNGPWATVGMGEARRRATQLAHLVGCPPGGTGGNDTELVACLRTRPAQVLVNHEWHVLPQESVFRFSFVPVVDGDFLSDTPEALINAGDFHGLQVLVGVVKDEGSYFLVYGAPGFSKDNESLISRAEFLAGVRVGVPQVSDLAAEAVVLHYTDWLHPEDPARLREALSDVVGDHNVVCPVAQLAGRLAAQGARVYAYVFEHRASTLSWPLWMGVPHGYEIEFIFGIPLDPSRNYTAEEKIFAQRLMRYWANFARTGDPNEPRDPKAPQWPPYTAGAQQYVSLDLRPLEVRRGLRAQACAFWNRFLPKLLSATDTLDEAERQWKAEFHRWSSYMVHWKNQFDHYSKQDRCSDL

[3] = biological target: Sodium-dependent serotonin transporter (Homo sapiens, UniProt P31645)
Sequence of Sodium-dependent serotonin transporter (P31645 whole entry): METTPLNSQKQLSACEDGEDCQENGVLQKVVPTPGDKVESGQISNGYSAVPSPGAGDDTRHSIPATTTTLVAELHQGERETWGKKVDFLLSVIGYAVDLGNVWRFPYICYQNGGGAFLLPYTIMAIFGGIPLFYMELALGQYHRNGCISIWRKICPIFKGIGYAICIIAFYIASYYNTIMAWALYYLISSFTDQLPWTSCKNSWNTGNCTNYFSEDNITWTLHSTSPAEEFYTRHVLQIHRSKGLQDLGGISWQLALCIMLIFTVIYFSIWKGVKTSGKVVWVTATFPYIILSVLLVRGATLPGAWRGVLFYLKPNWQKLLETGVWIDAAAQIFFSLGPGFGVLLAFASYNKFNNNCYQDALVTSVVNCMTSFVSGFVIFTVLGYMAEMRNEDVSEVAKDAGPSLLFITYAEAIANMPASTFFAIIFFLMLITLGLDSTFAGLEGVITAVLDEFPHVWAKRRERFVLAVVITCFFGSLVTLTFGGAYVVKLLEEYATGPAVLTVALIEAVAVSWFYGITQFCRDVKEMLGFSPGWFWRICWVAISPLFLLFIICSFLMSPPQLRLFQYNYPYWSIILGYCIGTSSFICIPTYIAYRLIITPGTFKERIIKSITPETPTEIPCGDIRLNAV

D(3) dopamine receptor = D(3) dopamine receptor (Homo sapiens, UniProt P35462)
Sequence of D(3) dopamine receptor (P35462 whole entry): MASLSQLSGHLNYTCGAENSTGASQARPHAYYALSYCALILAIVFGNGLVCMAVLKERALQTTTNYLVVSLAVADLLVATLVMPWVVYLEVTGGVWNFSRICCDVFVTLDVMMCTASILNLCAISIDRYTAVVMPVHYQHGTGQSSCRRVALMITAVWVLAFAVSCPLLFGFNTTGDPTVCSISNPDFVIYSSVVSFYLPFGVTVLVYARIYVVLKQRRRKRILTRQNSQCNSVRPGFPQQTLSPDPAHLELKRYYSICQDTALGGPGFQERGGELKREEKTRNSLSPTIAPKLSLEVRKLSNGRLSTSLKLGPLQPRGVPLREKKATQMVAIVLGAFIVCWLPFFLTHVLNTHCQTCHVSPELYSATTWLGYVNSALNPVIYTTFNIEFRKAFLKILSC

[4] = biological target: Beta-1 adrenergic receptor (Homo sapiens, UniProt P08588); format: functional
Sequence of Beta-1 adrenergic receptor (P08588 whole entry): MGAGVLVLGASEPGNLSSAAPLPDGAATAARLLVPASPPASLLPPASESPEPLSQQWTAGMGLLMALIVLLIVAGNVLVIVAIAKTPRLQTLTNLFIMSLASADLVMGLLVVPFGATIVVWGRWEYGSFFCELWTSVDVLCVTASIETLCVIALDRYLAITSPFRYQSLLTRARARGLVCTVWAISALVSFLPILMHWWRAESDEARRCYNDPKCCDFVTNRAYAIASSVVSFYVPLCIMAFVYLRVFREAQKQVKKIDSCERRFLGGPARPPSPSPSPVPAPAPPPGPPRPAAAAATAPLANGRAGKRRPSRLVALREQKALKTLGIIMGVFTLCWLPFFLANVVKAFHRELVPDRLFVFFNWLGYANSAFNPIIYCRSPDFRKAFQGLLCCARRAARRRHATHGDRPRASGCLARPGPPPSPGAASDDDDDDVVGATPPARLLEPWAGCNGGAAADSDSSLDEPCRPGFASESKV

[5] = biological target: Voltage-dependent L-type calcium channel subunit alpha-1C (Rattus norvegicus, UniProt P22002); format: functional
[6] = biological target: T2, Neuropeptide Y receptor type 1 (Homo sapiens, UniProt P25929)
T2 sequence (P25929 whole entry): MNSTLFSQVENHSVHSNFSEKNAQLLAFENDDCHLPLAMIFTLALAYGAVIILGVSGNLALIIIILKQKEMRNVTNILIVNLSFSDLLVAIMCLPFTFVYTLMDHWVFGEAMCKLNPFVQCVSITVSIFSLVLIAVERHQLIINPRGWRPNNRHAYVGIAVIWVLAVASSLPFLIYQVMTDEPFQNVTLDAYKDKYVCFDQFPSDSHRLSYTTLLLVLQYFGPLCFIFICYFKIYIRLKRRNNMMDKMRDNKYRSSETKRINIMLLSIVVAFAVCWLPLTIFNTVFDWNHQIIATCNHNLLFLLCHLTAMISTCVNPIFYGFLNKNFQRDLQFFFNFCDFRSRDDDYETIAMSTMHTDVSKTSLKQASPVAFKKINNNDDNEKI

Endothelin-1 receptor = biological target: T3, Endothelin-1 receptor (Homo sapiens, UniProt P25101)
T3 sequence (P25101 whole entry): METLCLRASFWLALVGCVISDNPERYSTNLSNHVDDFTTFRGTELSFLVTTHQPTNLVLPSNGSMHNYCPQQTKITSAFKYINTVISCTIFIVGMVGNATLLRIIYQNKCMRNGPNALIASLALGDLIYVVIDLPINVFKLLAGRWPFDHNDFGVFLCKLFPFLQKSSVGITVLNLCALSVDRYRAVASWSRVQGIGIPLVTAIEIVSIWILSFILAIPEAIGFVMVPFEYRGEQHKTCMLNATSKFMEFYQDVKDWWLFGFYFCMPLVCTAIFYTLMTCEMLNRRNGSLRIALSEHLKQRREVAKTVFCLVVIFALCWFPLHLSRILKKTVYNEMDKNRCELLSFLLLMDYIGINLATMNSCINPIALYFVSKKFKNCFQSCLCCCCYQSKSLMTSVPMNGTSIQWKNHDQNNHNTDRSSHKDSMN

[7] = biological target: T4, Alpha-1A adrenergic receptor (Homo sapiens, UniProt P35348); format: functional, cell-based
T4 sequence (P35348 whole entry): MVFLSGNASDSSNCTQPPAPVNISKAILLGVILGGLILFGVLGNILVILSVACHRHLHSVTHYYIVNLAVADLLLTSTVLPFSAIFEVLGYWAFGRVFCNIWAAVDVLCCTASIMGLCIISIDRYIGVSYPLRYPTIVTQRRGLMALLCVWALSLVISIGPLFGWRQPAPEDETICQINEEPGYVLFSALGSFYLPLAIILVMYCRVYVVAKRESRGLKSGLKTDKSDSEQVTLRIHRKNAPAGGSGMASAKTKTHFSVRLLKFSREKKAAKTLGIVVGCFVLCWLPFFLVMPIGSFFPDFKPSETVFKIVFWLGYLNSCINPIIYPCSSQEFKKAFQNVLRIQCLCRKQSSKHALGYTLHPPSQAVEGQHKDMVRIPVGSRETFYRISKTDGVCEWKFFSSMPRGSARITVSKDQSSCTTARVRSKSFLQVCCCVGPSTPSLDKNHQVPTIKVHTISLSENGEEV

[8] = biological target: Beta-2 adrenergic receptor (Homo sapiens, UniProt P07550); format: functional, cell-based
Sequence of Beta-2 adrenergic receptor (P07550 whole entry): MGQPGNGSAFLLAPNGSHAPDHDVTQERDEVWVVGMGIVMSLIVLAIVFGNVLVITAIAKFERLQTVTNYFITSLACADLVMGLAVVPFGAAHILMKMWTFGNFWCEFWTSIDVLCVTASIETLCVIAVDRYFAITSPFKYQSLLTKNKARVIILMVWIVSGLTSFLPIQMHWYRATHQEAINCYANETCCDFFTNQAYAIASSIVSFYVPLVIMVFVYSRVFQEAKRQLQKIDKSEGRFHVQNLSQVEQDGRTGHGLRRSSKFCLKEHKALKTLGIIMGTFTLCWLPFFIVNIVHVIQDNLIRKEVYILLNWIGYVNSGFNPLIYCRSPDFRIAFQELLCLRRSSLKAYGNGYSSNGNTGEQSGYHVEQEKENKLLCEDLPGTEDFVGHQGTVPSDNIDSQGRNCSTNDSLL

Histamine H2 receptor = Histamine H2 receptor (Homo sapiens, UniProt P25021); format: functional, cell-based
Sequence of Histamine H2 receptor (P25021 whole entry): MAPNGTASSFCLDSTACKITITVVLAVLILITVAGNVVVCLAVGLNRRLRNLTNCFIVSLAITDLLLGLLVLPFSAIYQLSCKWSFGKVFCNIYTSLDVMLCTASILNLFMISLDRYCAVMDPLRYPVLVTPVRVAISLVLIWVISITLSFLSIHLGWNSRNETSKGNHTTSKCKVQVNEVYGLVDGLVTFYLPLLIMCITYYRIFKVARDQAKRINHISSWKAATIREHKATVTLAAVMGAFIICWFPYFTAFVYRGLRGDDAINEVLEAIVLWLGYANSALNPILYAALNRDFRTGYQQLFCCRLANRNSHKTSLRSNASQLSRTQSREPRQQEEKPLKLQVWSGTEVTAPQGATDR

Vasopressin V2 receptor = Vasopressin V2 receptor (Homo sapiens, UniProt P30518)
Sequence of Vasopressin V2 receptor (P30518 whole entry): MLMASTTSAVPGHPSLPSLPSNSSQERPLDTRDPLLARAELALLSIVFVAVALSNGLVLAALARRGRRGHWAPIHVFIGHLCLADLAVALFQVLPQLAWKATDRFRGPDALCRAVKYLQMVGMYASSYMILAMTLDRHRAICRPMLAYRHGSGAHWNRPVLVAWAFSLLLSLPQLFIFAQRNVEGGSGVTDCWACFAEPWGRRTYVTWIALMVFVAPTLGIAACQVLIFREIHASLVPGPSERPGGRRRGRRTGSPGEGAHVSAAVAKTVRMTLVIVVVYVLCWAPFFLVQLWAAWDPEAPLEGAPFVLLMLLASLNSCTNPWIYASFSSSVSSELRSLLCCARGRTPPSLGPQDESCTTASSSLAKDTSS

[9] = biological target: T5, 5-hydroxytryptamine receptor 1A (Homo sapiens, UniProt P08908); format: functional, cell-based
T5 sequence (P08908 whole entry): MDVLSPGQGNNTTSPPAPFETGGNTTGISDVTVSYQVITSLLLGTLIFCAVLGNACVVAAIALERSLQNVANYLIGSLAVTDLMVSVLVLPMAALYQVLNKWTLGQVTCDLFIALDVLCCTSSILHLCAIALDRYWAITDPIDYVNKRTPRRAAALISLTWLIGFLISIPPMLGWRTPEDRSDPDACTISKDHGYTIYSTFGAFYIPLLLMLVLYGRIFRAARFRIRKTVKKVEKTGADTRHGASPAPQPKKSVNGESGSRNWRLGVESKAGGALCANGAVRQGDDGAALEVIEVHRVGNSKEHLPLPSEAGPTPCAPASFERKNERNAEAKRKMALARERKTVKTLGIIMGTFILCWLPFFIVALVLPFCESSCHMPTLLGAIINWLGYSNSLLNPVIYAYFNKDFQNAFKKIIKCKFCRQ
Note: assay procedure not described here.

| SMILES | AC50 (Estrogen receptor) | AC50 [1] | AC50 [2] | AC50 (Acetylcholinesterase) | AC50 [3] | AC50 (D(3) dopamine receptor) | AC50 [4] | AC50 [5] | AC50 [6] | AC50 (Endothelin-1 receptor) | AC50 [7] | AC50 [8] | AC50 (Histamine H2 receptor) | AC50 (Vasopressin V2 receptor) | AC50 [9] |
| --- | --- | --- | --- | --- | --- | --- | --- | --- | --- | --- | --- | --- | --- | --- | --- |
| O=C1c2c(O)c(=O)ccn2N([C@@H]2c3ccccc3SCc3c2ccc(F)c3F)[C@@H]2COCCN12 [BALOXAVIR] | > 30 µM | > 30 µM | > 30 µM | > 30 µM | > 30 µM | > 30 µM |  |  |  |  |  |  |  |  |  |
| C(=N\NC1=NCCN1)/c1c2ccccc2c(/C=N/NC2=NCCN2)c2ccccc12 [BISANTRENE] | > 30 µM | > 30 µM | > 30 µM | 3.88 µM | 2.25 µM | 5.96 µM |  |  |  |  |  |  |  |  |  |
| COc1cc(Nc2c(C#N)cnc3cc(OCCCN4CCN(C)CC4)c(OC)cc23)c(Cl)cc1Cl [BOSUTINIB] | > 30 µM | > 30 µM | > 30 µM | 15.6 µM | 3.21 µM | 3.01 µM | > 10 µM | > 10 µM | > 30 µM | > 30 µM |  |  |  |  |  |
| N[C@@H](C(=O)N[C@@H]1C(=O)N2C(C(=O)O)=C(Cl)CS[C@H]12)c1ccccc1 [CEFACLOR ANHYDROUS] |  |  |  |  |  |  | > 30 µM |  | > 30 µM | > 30 µM | > 30 µM | > 30 µM | > 30 µM | > 30 µM |  |
| CCO/N=C(\C(=O)N[C@@H]1C(=O)N2C(C(=O)[O-])=C(Sc3nc(-c4cc[n+](C)cc4)cs3)CS[C@H]12)c1nsc(N)n1 [CEFTAROLINE] | > 30 µM | > 30 µM | > 30 µM | > 30 µM | > 30 µM | > 30 µM |  |  |  |  |  |  |  |  |  |
| C[N+](C)(C)CCCCCCCCCC[N+](C)(C)C [DECAMETHONIUM] | > 30 µM | > 30 µM | > 30 µM | 9.15 µM | > 30 µM | > 30 µM |  |  |  |  |  |  |  |  |  |
| O=C1c2ccccc2C(=O)C1C(=O)C(c1ccccc1)c1ccccc1 [DIPHENADIONE] |  | 20.4 µM | > 30 µM | > 30 µM | > 30 µM | > 30 µM |  |  |  |  |  |  |  |  |  |
| CN(CCOc1ccc(NS(C)(=O)=O)cc1)CCc1ccc(NS(C)(=O)=O)cc1 [DOFETILIDE] | > 30 µM | > 30 µM | > 30 µM | 13.6 µM | > 30 µM | 3.36 µM | > 10 µM |  | > 30 µM | > 30 µM | > 30 µM |  | > 30 µM | > 30 µM | > 10 µM |
| CCOC(=O)c1ccc(O)cc1 [ETHYLPARABEN] | > 30 µM | > 30 µM | > 30 µM | > 30 µM | > 30 µM | > 30 µM |  |  |  |  |  |  |  |  |  |
| O=C1[C@H](CC[C@H](O)c2ccc(F)cc2)[C@@H](c2ccc(O)cc2)N1c1ccc(F)cc1 [EZETIMIBE] | > 30 µM | 6.72 µM | > 30 µM | > 30 µM | > 30 µM | > 30 µM |  |  |  |  |  |  |  |  |  |
| O=C(COc1ccc(Cl)cc1)N1CCN(Cc2ccc3c(c2)OCO3)CC1 [FIPEXIDE] | > 30 µM | > 30 µM | > 30 µM | > 30 µM | 29.2 µM | 27.1 µM |  |  |  |  |  |  |  |  |  |
| CCC(=O)c1c(O)cc(O)cc1O [FLOPROPIONE] | > 30 µM | > 30 µM | > 30 µM | > 30 µM | > 30 µM | 12.1 µM |  |  |  |  |  |  |  |  |  |
| CC(=O)Oc1c(C)cc(OCC(O)CNC(C)C)c(C)c1C (configuration not stated) [METIPRANOLOL] | > 30 µM | > 30 µM | > 30 µM | > 30 µM | > 30 µM | > 30 µM |  |  |  |  |  |  |  |  |  |
| CC(N/C(=N\C#N)Nc1ccncc1)C(C)(C)C (configuration not stated) [PINACIDIL ANHYDROUS] |  | > 30 µM | > 30 µM | > 30 µM | > 30 µM | > 30 µM |  |  |  |  |  |  |  |  |  |
| CN(C)C(=O)Oc1ccc[n+](C)c1 [PYRIDOSTIGMINE] | > 30 µM | > 30 µM | > 30 µM |  | > 30 µM | > 30 µM |  |  |  |  |  |  |  |  |  |
| Cc1cc2c(cc1CC(=O)c1sccc1S(=O)(=O)Nc1onc(C)c1Cl)OCO2 [SITAXENTAN] | > 30 µM | > 30 µM | > 30 µM | > 30 µM | > 30 µM | > 30 µM |  |  |  |  |  |  |  |  |  |
| CC(C)OC(=O)[C@H](C)N[P@](=O)(OC[C@H]1O[C@@H](n2ccc(=O)[nH]c2=O)[C@](C)(F)[C@@H]1O)Oc1ccccc1 [SOFOSBUVIR] | > 30 µM | > 30 µM | > 30 µM | > 30 µM | > 30 µM | > 30 µM |  |  |  |  |  |  |  |  |  |
| CS(=O)(=O)c1ccc([C@@H](O)[C@@H](CO)NC(=O)C(Cl)Cl)cc1 [THIAMPHENICOL] | > 30 µM | > 30 µM | > 30 µM | > 30 µM |  | > 30 µM | > 30 µM | > 30 µM | > 30 µM | > 30 µM | > 30 µM |  | > 30 µM | > 30 µM | > 30 µM |
| Cc1ccc(O)c2ncccc12 [TILIQUINOL] | > 30 µM | > 30 µM | > 30 µM | > 30 µM | > 30 µM | > 30 µM |  |  |  |  |  |  |  |  |  |
| CC(=O)OC[C@H]1O[C@@H](n2ccc(=O)[nH]c2=O)[C@H](OC(C)=O)[C@@H]1OC(C)=O [URIDINE TRIACETATE] | > 30 µM | > 30 µM | > 30 µM | > 30 µM | > 30 µM | > 30 µM |  |  |  |  |  |  |  |  |  |
| CCOC(=O)N[C@@H]1CC[C@@H]2[C@@H](C1)C[C@H]1C(=O)O[C@H](C)[C@H]1[C@H]2/C=C/c1ccc(-c2cccc(F)c2)cn1 [VORAPAXAR] | > 30 µM | > 30 µM | > 30 µM | > 30 µM | > 10 µM | > 30 µM |  |  |  |  |  |  |  |  |  |
